Where two headings read alike, the source gives them in different places.
How the values were obtained:
[1] = system: Escherichia coli K-12 MG1655; experiment: Screening for tolerance in wild-type cells: growth in varying concentrations of neutralized diacid, Biolector; format: cell-based; conditions: for tlag (lag time), mean / μ (growth rate), mean: neutralized with sodium hydroxide
Method: Escherichia coli K-12 MG1655 was grown overnight in M9 minimal medium+1% glucose and subcultured the following morning to an initial OD600 of 0.05 in M9+1% glucose. Cells were grown to mid-exponential phase (OD600 0.7-1.0) and were back-diluted with fresh medium to an OD600 of 0.7. The diluted cells were used to inoculate M9+1% glucose containing varying concentrations of glutaric acid or adipic acid which were neutralized to pH 7.0 with sodium hydroxide, and growth was measured in FlowerPlates in a Biolector microbioreactor system (m2p-labs) at 37° C. with 1000 rpm shaking. The culture volume in each well was 1.4 mL.

[2] = system: Escherichia coli K-12 MG1655 and evolved isolates; format: cell-based; conditions: 45 g/L pimelic acid
Method: Five colonies from wild-type K-12 MG1655 and 10 individual colonies deriving from each population were inoculated into 300 μL M9+1% glucose in 96 well deepwell plates and incubated in a 300 rpm plate shaker at 37° C. The next day, cells were diluted 10× in M9+1% glucose and 30 μL was transferred into clear-bottomed 96 well half-deepwell plates (with rectangular wells) containing M9+1% glucose and M9+1% glucose+52.78 g/L glutaric acid or 55.56 g/L adipic acid, such that the final concentration of glutaric acid or adipic acid was 47.5 g/L or 50 g/L, respectively. In addition, cryogenic glycerol stocks of the overnight culture were saved in a 96 well plate format. Half deepwell plates were incubated at 37° C. with 225 rpm shaking in a Growth Profiler (Enzyscreen), with optical scans of the plates taken at 15 minute intervals. Green pixel values integrated over a 1 mm diameter circular area in each well were converted to OD600 values using a previously determined calibration between OD600 and green pixel values.
Additionally, each evolved isolate was tested for cross-tolerance toward other dicarboxylic acids of interest. […] All diacids tested were either the neutral sodium salts, or the free diacid was neutralized with sodium hydroxide to pH 7.0 for testing.

Structure (SMILES): O=C(O)CCCCCC(=O)O [pimelic acid]
- tlag (lag time), mean ([1]; 10 g/L): 1.9 h
- μ (growth rate), mean ([1]; 10 g/L, M9+1% glucose, 37° C): 0.694 h⁻¹
- tlag (lag time), mean ([1]; 20 g/L): 2.4 h
- μ (growth rate), mean ([1]; 20 g/L): 0.656 h⁻¹
- tlag (lag time), mean ([1]; 25 g/L): 2.5 h
- μ (growth rate), mean ([1]; 25 g/L): 0.572 h⁻¹
- tlag (lag time), mean ([1]; 30 g/L): 3.3 h
- μ (growth rate), mean ([1]; 30 g/L): 0.560 h⁻¹
- tlag (lag time), mean ([1]; 35 g/L): 4.1 h
- μ (growth rate), mean ([1]; 35 g/L): 0.534 h⁻¹
- tlag (lag time), mean ([1]; 40 g/L): 4.3 h
- μ (growth rate), mean ([1]; 40 g/L): 0.439 h⁻¹
- tlag (lag time), mean ([1]; 45 g/L): 4.6 h
- μ (growth rate), mean ([1]; 45 g/L): 0.280 h⁻¹
- growth of K-12 MG1655 ([1]; at 45 g/L): Robust growth was still observed
- growth rate μ (mean) ([2]; strain ADIP1-1): 0.432 h⁻¹
- lag time tlag (mean) ([2]; strain ADIP1-1): 9.6 h
- growth rate μ (mean) ([2]; strain ADIP1-9): 0.421 h⁻¹
- lag time tlag (mean) ([2]; strain ADIP1-9): 8.8 h
- growth rate μ (mean) ([2]; strain ADIP2-5): 0.474 h⁻¹
- lag time tlag (mean) ([2]; strain ADIP2-5): 11.0 h
- growth rate μ (mean) ([2]; strain ADIP2-6): 0.480 h⁻¹
- lag time tlag (mean) ([2]; strain ADIP2-6): 10.6 h
- growth rate μ (mean) ([2]; strain ADIP2-10): 0.479 h⁻¹
- lag time tlag (mean) ([2]; strain ADIP2-10): 10.8 h
- growth rate μ (mean) ([2]; strain ADIP3-2): 0.438 h⁻¹
- lag time tlag (mean) ([2]; strain ADIP3-2): 8.4 h
- growth rate μ (mean) ([2]; strain ADIP3-4): 0.435 h⁻¹
- lag time tlag (mean) ([2]; strain ADIP3-4): 8.5 h
- growth rate μ (mean) ([2]; strain ADIP3-8): 0.426 h⁻¹
- lag time tlag (mean) ([2]; strain ADIP3-8): 9.1 h
- growth rate μ (mean) ([2]; strain ADIP4-1): 0.348 h⁻¹
- lag time tlag (mean) ([2]; strain ADIP4-1): 9.9 h
- growth rate μ (mean) ([2]; strain ADIP4-8): 0.349 h⁻¹
- lag time tlag (mean) ([2]; strain ADIP4-8): 10.3 h
- growth rate μ (mean) ([2]; strain ADIP5-2): 0.385 h⁻¹
- lag time tlag (mean) ([2]; strain ADIP5-2): 8.7 h
- growth rate μ (mean) ([2]; strain ADIP5-6): 0.483 h⁻¹
- lag time tlag (mean) ([2]; strain ADIP5-6): 8.5 h
- growth rate μ (mean) ([2]; strain ADIP6-3): 0.346 h⁻¹
- lag time tlag (mean) ([2]; strain ADIP6-3): 10.4 h
- growth rate μ (mean) ([2]; strain ADIP6-9): 0.278 h⁻¹
- lag time tlag (mean) ([2]; strain ADIP6-9): 11.1 h
- growth rate μ (mean) ([2]; strain ADIP6-10): 0.360 h⁻¹
- lag time tlag (mean) ([2]; strain ADIP6-10): 9.7 h
- growth rate μ (mean) ([2]; strain ADIP7-2): 0.393 h⁻¹
- lag time tlag (mean) ([2]; strain ADIP7-2): 9.0 h
- growth rate μ (mean) ([2]; strain ADIP7-5): 0.376 h⁻¹
- lag time tlag (mean) ([2]; strain ADIP7-5): 9.4 h
- growth rate μ (mean) ([2]; strain ADIP8-3): 0.235 h⁻¹
- lag time tlag (mean) ([2]; strain ADIP8-3): 12.8 h
- growth rate μ (mean) ([2]; strain ADIP8-7): 0.268 h⁻¹
- lag time tlag (mean) ([2]; strain ADIP8-7): 12.8 h
- growth rate μ (mean) ([2]; strain ADIP8-10): 0.249 h⁻¹
- lag time tlag (mean) ([2]; strain ADIP8-10): 12.8 h
- growth rate μ (mean) ([2]; strain GLUT1-3): 0.369 h⁻¹
- lag time tlag (mean) ([2]; strain GLUT1-3): 10.4 h
- growth rate μ (mean) ([2]; strain GLUT1-9): 0.337 h⁻¹
- lag time tlag (mean) ([2]; strain GLUT1-9): 11.9 h
- growth rate μ (mean) ([2]; strain GLUT1-10): 0.399 h⁻¹
- lag time tlag (mean) ([2]; strain GLUT1-10): 13.1 h
- growth rate μ (mean) ([2]; strain GLUT2-1): 0.362 h⁻¹
- lag time tlag (mean) ([2]; strain GLUT2-1): 11.6 h
- growth rate μ (mean) ([2]; strain GLUT2-9): 0.349 h⁻¹
- lag time tlag (mean) ([2]; strain GLUT2-9): 10.3 h
- growth rate μ (mean) ([2]; strain GLUT2-10): 0.383 h⁻¹
- lag time tlag (mean) ([2]; strain GLUT2-10): 10.2 h
- growth rate μ (mean) ([2]; strain GLUT3-5): 0.280 h⁻¹
- lag time tlag (mean) ([2]; strain GLUT3-5): 17.6 h
- growth rate μ (mean) ([2]; strain GLUT3-7): 0.360 h⁻¹
- lag time tlag (mean) ([2]; strain GLUT3-7): 11.5 h
- growth rate μ (mean) ([2]; strain GLUT3-9): 0.351 h⁻¹
- lag time tlag (mean) ([2]; strain GLUT3-9): 15.7 h
- growth rate μ (mean) ([2]; strain GLUT4-1): 0.378 h⁻¹
- lag time tlag (mean) ([2]; strain GLUT4-1): 12.8 h
- growth rate μ (mean) ([2]; strain GLUT4-4): 0.388 h⁻¹
- lag time tlag (mean) ([2]; strain GLUT4-4): 13.2 h
- growth rate μ (mean) ([2]; strain GLUT4-10): 0.371 h⁻¹
- lag time tlag (mean) ([2]; strain GLUT4-10): 11.5 h
- growth rate μ (mean) ([2]; strain GLUT5-4): 0.433 h⁻¹
- lag time tlag (mean) ([2]; strain GLUT5-4): 12.1 h
- growth rate μ (mean) ([2]; strain GLUT5-5): 0.420 h⁻¹
- lag time tlag (mean) ([2]; strain GLUT5-5): 12.8 h
- growth rate μ (mean) ([2]; strain GLUT5-9): 0.428 h⁻¹
- lag time tlag (mean) ([2]; strain GLUT5-9): 13.0 h
- growth rate μ (mean) ([2]; strain GLUT6-4): 0.356 h⁻¹
- lag time tlag (mean) ([2]; strain GLUT6-4): 11.7 h
- growth rate μ (mean) ([2]; strain GLUT6-5): 0.348 h⁻¹
- lag time tlag (mean) ([2]; strain GLUT6-5): 11.3 h
- growth rate μ (mean) ([2]; strain GLUT6-10): 0.353 h⁻¹
- lag time tlag (mean) ([2]; strain GLUT6-10): 12.1 h
- growth rate μ (mean) ([2]; strain GLUT7-2): 0.349 h⁻¹
- lag time tlag (mean) ([2]; strain GLUT7-2): 11.6 h
- growth rate μ (mean) ([2]; strain GLUT7-6): 0.357 h⁻¹
- lag time tlag (mean) ([2]; strain GLUT7-6): 14.8 h
- growth rate μ (mean) ([2]; strain GLUT7-7): 0.335 h⁻¹
- lag time tlag (mean) ([2]; strain GLUT7-7): 14.1 h
- growth rate μ (mean) ([2]; strain GLUT8-5): 0.349 h⁻¹
- lag time tlag (mean) ([2]; strain GLUT8-5): 11.8 h
- growth rate μ (mean) ([2]; strain GLUT8-6): 0.184 h⁻¹
- lag time tlag (mean) ([2]; strain GLUT8-6): 20.9 h
- growth rate μ (mean) ([2]; strain GLUT8-9): 0.259 h⁻¹
- lag time tlag (mean) ([2]; strain GLUT8-9): 11.2 h
- growth rate μ (mean) ([2]; strain MG1655 (Table 28)): 0.275 h⁻¹
- lag time tlag (mean) ([2]; strain MG1655 (Table 28)): 13.4 h
- growth rate μ (mean) ([2]; strain MG1655 (Table 29)): 0.271 h⁻¹
- lag time tlag (mean) ([2]; strain MG1655 (Table 29)): 12.4 h
